Assay results taken from patent US11246849B2, “Nerve growth promoter” (LAIMU CORPORATION, priority 2017, dated 2022).

Columns and labels:
Type in all cases: cell-based, rat
[1] = tested on: PCl2 cells; experiment: Bt2cAMP concentration dependency of neurite formation rate (preliminary experiment); details: Bt2cAMP concentration in the medium 1.0 mM; 24 hours; FIG. 1
Experimental: Using rat adrenal medullary pheochromocytoma-derived PCl2 cells obtained from Riken BioResource Research Center as a model, the L-valine solutions prepared in Preparation Examples were evaluated for the neurite formation effect and the neural differential promoting effect thereof. When acted on by Bt2cAMP (dibutyryladenosine 3′,5′-cyclic monophosphate) or NGF, the PCl2 cells are known to stop growing and to grow nerve fibers and elongate sympathetic ganglionic neuron-like dendrites. Here, L-valine was introduced into the Bt2cAMP-inductive neurite formation process and the NGF-inductive neural differentiation process to thereby evaluate the neurite formation effect and the neural differentiation promoting effect thereof, and the effect of L-valine was compared with that of L-leucine and L-isolencine. Here, the PCl2 cells were cultivated using an RPMI-1640 medium containing 10% equine serum (inactivated), 5% bovine fetal serum (inactivated), 100 U/mL penicillin G and 100 μg/mL streptomycin, in a 5% CO2 vapor phase in an incubator at 37° C., and the resultant cells in an about 70% confluent state were peeled with a basal medium and used in the experiment. […] In FIG. 1, the neurite formation rate is expressed as ±SD, and SD is a standard deviation of the three experiments carried out in the same manner. […]

[2] = tested on: PCl2 cells; experiment: Bt2cAMP-inductive neurite formation effect; details: 0.5 mM Bt2cAMP; for neurite formation promoting effect compared with L-valine: 0.2 μM or 2 μM, FIG. 4; for change in the neurite formation ratio: amino acid concentration increased up to 200 μM
Experimental: (§1) Using rat adrenal medullary pheochromocytoma-derived PCl2 cells obtained from Riken BioResource Research Center as a model, the L-valine solutions prepared in Preparation Examples were evaluated for the neurite formation effect and the neural differential promoting effect thereof. When acted on by Bt2cAMP (dibutyryladenosine 3′,5′-cyclic monophosphate) or NGF, the PCl2 cells are known to stop growing and to grow nerve fibers and elongate sympathetic ganglionic neuron-like dendrites. Here, L-valine was introduced into the Bt2cAMP-inductive neurite formation process and the NGF-inductive neural differentiation process to thereby evaluate the neurite formation effect and the neural differentiation promoting effect thereof, and the effect of L-valine was compared with that of L-leucine and L-isolencine.
(§2) Here, the PCl2 cells were cultivated using an RPMI-1640 medium containing 10% equine serum (inactivated), 5% bovine fetal serum (inactivated), 100 U/mL penicillin G and 100 μg/mL streptomycin, in a 5% CO2 vapor phase in an incubator at 37° C., and the resultant cells in an about 70% confluent state were peeled with a basal medium and used in the experiment. In the following, the medium having the same composition as the medium used in cultivation of the PCl2 cells is referred to as “basal medium”.
Here, for the judgement of positivity or negativity, 300 to 400 cells/well were observed.
In the same manner as in the above-mentioned preliminary experiment, a suspension of PCl2 cells was sown in a collagen-coated 96-well plate at 4.0×10^3 cells/90 μL/well, and cultivated therein in a 5% CO2 vapor phase at 37° C. for 24 hours. After the cultivation, Dulbecco PBS(−) containing 10 mM Bt2cAMP, and the L-valine solution prepared in Preparation Example 1 or Preparation Example 2 were added to each well each in an amount of 5 μL/well, and the cells were further cultivated for 24 hours. At this time, the Bt2cAMP concentration in the medium in each well was 0.5 mM.
Next, co-addition of valine and methionine to a medium was checked for the effect. In the same manner as above, Bt2cAMP was added to an RPMI-1640 medium where PCl2 cells were sown and cultivated in each well, and further, an L-valine solution, an L-methionine solution, or a solution of a mixture prepared by mixing L-valine and L-methionine at 1/1 was added thereto and the cells were further cultivated to check for the neurite formation rate. Regarding the concentration of the amino acid added to the RPMI-1640 medium, the concentration in the system using the L-valine solution or the L-methionine solution was 0.2 μM, and the concentration of L-valine and L-methionine in the system using the L-valine and L-methionine mixture solution was 0.1 μM each, totaling 0.2 μM.

[3] = tested on: PCl2 cells; experiment: NGF-inductive neural differentiation, neurofilament immunofluorescent staining; details: NGF plus L-valine (sample 1) versus NGF only (comparative sample 2); 48 hours; FIG. 7
Experimental: as §1, §2
A neurofilament was used as a neural differentiation marker. […]

[4] = RPMI-1640, high concentration of 20 μM, FIG. 5
[5] = amino acid 0.02 or 0.2 μg/mL in RPMI-1640 (FIG. 2), 0.02 μg/mL in Nutrient Mixture F-12 Ham (FIG. 3), 24 hours

SMILES | change in the neurite formation ratio ([2]; RPMI-1640) | other results
CCCC(=O)Nc1ncnc2c1ncn2[C@@H]1O[C@@H]2COP(=O)(O)O[C@H]2[C@H]1OC(=O)CCC [Bt2cAMP, dibutyryladenosine 3′,5′-cyclic monophosphate] |  | neurite formation rate (maximum) [1]: 19.5%
CSCC[C@@H](N)C(=O)O [D-methionine] |  | neurite formation promoting effect [2, 4]: exhibited the neurite formation promoting effect
CC(C)[C@@H](N)C(=O)O [D-valine] |  | neurite formation promoting effect compared with L-valine ([2]; RPMI-1640): same neurite formation promoting effect like that of L-valine
CC[C@H](C)[C@H](N)C(=O)O [L-isoleucine] |  | neurite formation promoting effect [2, 5]: could not be recognized
CC(C)C[C@H](N)C(=O)O [L-leucine] |  | neurite formation promoting effect [2, 5]: could not be recognized
CSCC[C@H](N)C(=O)O [L-methionine] |  | neurite formation promoting effect [2, 4]: exhibited the neurite formation promoting effect
CC(C)[C@H](N)C(=O)O [L-valine] |  | neurite formation promoting effect [2, 5]: significantly promoted; neurofilaments (bright spots in FITC fluorescently-stained image) versus NGF alone [3]: larger number of bright spots
CC(=O)N[C@H](C(=O)O)C(C)C [N-acetyl-L-valine] |  | neurite formation promoting effect compared with L-valine ([2]; RPMI-1640): same neurite formation promoting effect like that of L-valine
C[C@H](N)C(=O)O [alanine] | could not provide any significant change | 
N=C(N)NCCC[C@H](N)C(=O)O [arginine] | could not provide any significant change | 
NC(=O)C[C@H](N)C(=O)O [asparagine] | could not provide any significant change | 
N[C@@H](CC(=O)O)C(=O)O [aspartic acid] | could not provide any significant change | 
N[C@@H](CS)C(=O)O [cysteine] | could not provide any significant change | 
N[C@@H](CCC(=O)O)C(=O)O [glutamic acid] | could not provide any significant change | 
NC(=O)CC[C@H](N)C(=O)O [glutamine] | could not provide any significant change | 
NCC(=O)O [glycine] | could not provide any significant change | 
N[C@@H](Cc1c[nH]cn1)C(=O)O [histidine] | could not provide any significant change | 
NCCCC[C@H](N)C(=O)O [lysine] | could not provide any significant change | 
N[C@@H](Cc1ccccc1)C(=O)O [phenylalanine] | could not provide any significant change | 
O=C(O)[C@@H]1CCCN1 [proline] | could not provide any significant change | 
N[C@@H](CO)C(=O)O [serine] | could not provide any significant change | 
C[C@@H](O)[C@H](N)C(=O)O [threonine] | could not provide any significant change | 
N[C@@H](Cc1c[nH]c2ccccc12)C(=O)O [tryptophan] | could not provide any significant change | 
N[C@@H](Cc1ccc(O)cc1)C(=O)O [tyrosine] | could not provide any significant change | 
